Test system: brain / choroid plexus uptake
Experiment: PET imaging in cynomolgus monkey
Type: in vivo

Which “effect of blocking on [18F]1 uptake” value (5 mg/kg of 1 given 30 min prior to [18F]1) does the source give for `Cl.O=C(Cc1ccc(OC2CCNCC2)cc1OCCF)N1CCC(N2C(=O)CCc3ccccc32)CC1` [Compound 1, 1-(1-(2-(2-(2-fluoroethoxy)-4-(piperidin-4-yloxy)phenyl)acetyl)piperidin-4-yl)-3,4-dihydroquinolin-2(1H)-one] here?
The value was “increase of overall brain activity, primarily in the region of the choroid plexus”.

What about the “effect of chase on [18F]1 choroid plexus uptake” value (5 mg/kg of 1 given 45 min after [18F]1) of the same compound?
Its value is “uptake within the choroid plexus was completely removed”.
